# Measured values: patent US20250222109A1, “STRUCTURED LIPID COMPOSITIONS” (Universität Bern, priority 2022, published 2025)
# Columns and labels:
# T cell transfer colitis [1] = assay: T-cell transfer colitis; type: in vivo, mice; conditions: colonoscopy, day 19 post T cell application
# T cell transfer colitis [2] = assay: T-cell transfer colitis; type: in vivo, mice
# From the text: To induce T cell mediated colitis, CD4+ T cells were isolated from the spleen of C57/BL6 mice (Strain #: 000664; RRID:IMSR_JAX: 000664 ex. Jackson laboratories) using the CD4 T cell isolation kit from Stemcell Technologies (#19852; Cologne, Germany) and subsequently naïve T helper cells (CD3+, CD4+, CD25low, […], CD44low cells) were sorted on a FACS Aria III (Becton Dickinson; Eysins, Switzerland) as described previously (D. V. Ostanin, et al., T cell transfer model of chronic colitis: Concepts, considerations, and tricks of the tradeAm. J. Physiol.—Gastrointest. Liver Physiol. 296, 135-146 (2009); M. R. Spalinger, et al., PTPN2 controls differentiation of CD4+ T cells and limits intestinal inflammation and intestinal dysbiosis, Mucosal Immunol. 8, 918-929 (2015); M. R. Spalinger, et al., Loss of PTPN22 Promotes Intestinal Inflammation by Compromising Granulocyte-mediated Antibacterial Defence, J. Crohn's Colitis 15, 2118-2130 (2021)). 12-15 week old male and female Rag^−/− mice in the C57/BL6 background (model RAGN12 (B6.129S6-Rag2^tm1Fwa N12) ex. Taconic) were injected intraperitoneally with 2.5×10^5 naïve T helper cells (all methods used were approved under licence no. ZH043/2021). Starting on day 2 post T cell injection, the mice received one daily rectal instillation (100 μL) of empty TIF-Gels, TAC-loaded TIF-Gels or TAC in vehicle solution (1% […] in distilled water). Weight development and disease activity scores were measured on a daily basis. On the last day of the experiment (day 18), the mice were anaesthetised using a mixture of ketamine 90-120 mg/kg bodyweight (Vétoquinol, Bern, Switzerland) and xylazine 8 mg/kg bodyweight (Bayer, Lyssach, Switzerland), and were subjected to mouse endoscopy to assess the extent of endoscopic colitis (M. R. Spalinger, et al., Protein tyrosine phosphatase non-receptor type 22 modulates colitis in a microbiota-dependent manner, J. Clin. Invest. 129, 2527-2541 (2019)) using the following parameters: 1) thickening of the colon wall, 2) vascularisation/bleeding, 3) extent of fibrin deposits, 4) granular appearance of the colon wall, 5) stool consistency. Each parameter was given a score from 0 (normal) to 3 (most severe appearance), resulting in a maximal total score of 15. After colonoscopy, the mice were sacrificed and colon tissue harvested for histology and isolation of lamina propria immune cells. Immune cells were isolated from the colon, mesenteric lymph nodes and the spleen, and analysed for immune cell subsets (M. R. Spalinger, et al., (2019) Loss of PTPN22 abrogates the beneficial effect of cohousing-mediated fecal microbiota transfer in murine colitis, Mucosal Immunol. 12, 1336-1347).
# To assess the microscopic extent of colitis, formalin-fixed, paraffin embedded sections of the most distal 1.5 cm of the colon were subjected to hematoxilin and eosin (H&E) staining using standard protocols (M. R. Spalinger, et al. (2019)). The sections were analysed by two blinded scientists for the extent of epithelial damage (score 0-4) and infiltration of immune cells (score 0-4) resulting in a maximal possible score of 8. Images were taken using a Zeiss Axio Imager.Z2 microscope (Zeiss), equipped with an AxioCam HRc (Zeiss, Jena, Germany) camera and ZEN imaging software (Zeiss, Germany).
# To analyse cytokine levels in the colons, colon pieces were lysed in PBS (1 ml PBS/[…] tissue) using a GentleMACS device from Miltenyi Biotec (Miltenyi Biotec, Bergisch Gladbach, Germany). Lysates were then analysed for cytokines using the Bio-Plex Pro Mouse Cytokine 23-plex Assay from Bio-Rad (Hercules, CA) according to the manufacturer's instructions.
# TIF-Gel acts as a platform able to host and release molecules with different polarity. Thus, the hydrophobic TAC was loaded in to TIF-Gel and its ability to reduce colitis severity was assessed also using a model of T cell mediated colitis, namely T cell transfer colitis. […]
# [3] = daily rectal instillation 100 μL
smiles,measurement,setting,value
"C=CC[C@@H]1/C=C(\C)C[C@H](C)C[C@H](OC)[C@H]2O[C@@](O)(C(=O)C(=O)N3CCCC[C@H]3C(=O)O[C@H](/C(C)=C/[C@@H]3CC[C@@H](O)[C@H](OC)C3)[C@H](C)[C@@H](O)CC1=O)[C@H](C)C[C@@H]2OC [TAC, tacrolimus]",endoscopic signs of colitis,T cell transfer colitis [1],reduced endoscopic signs of colitis
same,levels of IFN-γ,T cell transfer colitis [2]; colonic tissues,reduced levels
same,levels of IL-17,T cell transfer colitis [2]; colonic tissues,reduced levels
same,"first signs of colitis, day post T cell transfer",T cell transfer colitis [2]; daily rectal instillation,~10 days
same,diarrhoea / disease activity score,T cell transfer colitis [2]; [3],signs of diarrhoea
same,weight development,T cell transfer colitis [2]; [3],progressive weight loss
same,relative abundance of T cells,"T cell transfer colitis [2]; lamina propria, mesenteric lymph nodes and spleen",reduced the relative abundance of T cells
same,abundance of FOXP3+ (regulatory) T cells,"T cell transfer colitis [2]; mouse, in vivo",not much effect
same,Th1 cells,T cell transfer colitis [2]; vs empty TIF-Gels,reduced
same,Th17 cells,T cell transfer colitis [2]; vs empty TIF-Gels,reduced
same,colon length,T cell transfer colitis [2]; vs empty TIF-Gels,longer colons
same,spleen weight,T cell transfer colitis [2]; vs empty TIF-Gels,reduced spleen weight
